Results reported in article PMC7552967, “Anti-Melanoma Activities of Artemisone and Prenylated Amino-Artemisinins in Combination With Known Anticancer Drugs” (Frontiers in Pharmacology, 2020).

Experiments:
[1] = test system: HaCat normal keratinocytes; assay: LDH release membrane integrity assay, HaCat; conditions: compounds at their IC50 concentrations, 24 h; combinations 1:1; relative to maximum release
Description: (§1) In order to determine cell membrane integrity, the CytoTox-ONE™ Homogeneous Membrane Integrity Assay (Promega, Madison, WO, USA) was employed. This fluorometric assay measures the release of LDH from cells with damaged cell membranes. […] The manufacturer’s instructions were followed to determine the fluorescence at an excitation wavelength of 560 nm and an emission wavelength of 590 nm. In order to calculate the percentage cytotoxicity, the average fluorescent values of the background medium were subtracted from all average fluorescent values of the experimental samples and the positive control. Cytotoxicity is expressed as a percentage relative to the positive control, which is assumed to be responsible for 100% LDH release. The fold increase in LDH release was taken as the indication of the selectivity toward melanoma cell membranes, calculated as the […]. All experiments were performed at least in triplicate and independently repeated. Statistical significant differences were calculated with one-way ANOVA.
(§2) Results are expressed relative to the untreated control and the maximum release sample, which was set as having 0% and 100% LDH release respectively. The LDH released from the nonmalignant HaCat cells and the A375 melanoma cells was then used to deduce the selectivity of the compounds against melanoma cell membranes.

[2] = test system: HaCat normal keratinocytes; assay: MTT cell viability assay, HaCat; format: cell-based, human; conditions: 24 h; for CC50: Homo sapiens, HaCaT, combinations 1:1, mean ± SD, read-out: HaCat IC50
Description: (§3) The human cell lines TK10 (human kidney adenocarcinoma), UACC62 (human melanoma) and MCF7 (human breast adenocarcinoma) were obtained from the National Cancer Institute (NCI) as part of a panel widely studied for drug screening and molecular target identification. […] The nontumorigenic human immortalized keratinocyte (HaCaT) cells were a kind donation by the School of Anatomical Sciences, Faculty of Health Sciences, University of the Witwatersrand, South Africa. […] All reagents were of analytical grade and were obtained from Merck (Darmstadt, Germany) unless stated otherwise. Cells were cultured in Dulbecco’s modified essential medium (DMEM; Hyclone, GE healthcare, South Logan, UT, USA) containing 10% fetal bovine serum (FBS), 1% penicillin/streptomycin, 1% 200 mM L-Glutamine and 1% nonessential amino acids (Lonza, Basel, Switzerland) at 37°C in a humidified atmosphere of 5% CO2. Stock solutions of the compounds were prepared in dimethyl sulfoxide (DMSO). All subsequent dilutions were prepared in serum-free DMEM and vehicle controls were included in all experiments
(§4) The growth inhibitory effects of the compounds were tested in the 3-cell line panel consisting of TK10 (renal), UACC62 (melanoma) and MCF7 (breast) cancer cells by Sulforhodamine B (SRB) assay. […] Compounds prepared in DMSO were tested at 0.01–100 µM serial dilutions to establish initial inhibitory concentrations. […] After 24 h exposure to compounds, growth medium was removed, cells rinsed twice with 1 ml of phosphate buffered saline (PBS) and 100 µl fresh serum-free medium containing 5 mg/ml MTT solution was added MTT solution was prepared fresh for each analysis). Cells were then incubated for 4 h at 37°C, after which the MTT was removed and substituted with 100 µl dimethyl sulfoxide (DMSO) to dissolve the formazan crystals for an h at 37°C. After incubation, cell viability was determined using a microplate reader (BioTek®, Vermont, USA) at an excitation wavelength of 560 nm and emission wavelength of 630 nm with DMSO measured as a blank. Cell viability was expressed as a percentage relative to the untreated control, which is assumed to be 100% viable. For a positive control, cells were treated with 0.01% Triton-X 100 (Sigma-Aldrich, St Louis, MO, USA) for a period of 4 h. Using the MTT assay data, IC50 values were calculated using GraphPad Prism 8. Data were normalized to the positive (alleged to be 0% viable) and negative controls (presumed to be 100% viable), followed by the log-transformation of the concentration values. […] A crude therapeutic index (fold decrease in IC50 value) was calculated as the IC50 of the noncancerous cell-line/IC50 of the cancerous cell line. […] Drug interactions were evaluated for synergism, additivity or antagonism using multiple drug effect analysis, based on the median-principle. Cells were treated with the drug combinations for 24 h and analyzed. The CompuSyn (ComboSyn, Inc. NJ, USA) software package was used to generate the median-effect plots and combination index plots. […] All experiments were performed at least in triplicate and repeated independently.
(§5) Next, the quantitative colorimetric MTT assay was used to determine in vitro cell viability with A375 (melanoma) and HaCat (nonmalignant keratinocyte) cells. […] The IC50 was used to determine a crude therapeutic index (fold increase or decline in IC50).

A375 melanoma cells [3] = assay: LDH release membrane integrity assay, A375; format: cell-based, human; conditions: for LDH release, result in words: IC50 concentrations, 24 h (Table 3, Figure 6C); for A375 (% LDH release): compounds at their IC50 concentrations, 24 h, combinations 1:1, relative to maximum release
Description: as §1, §2

[4] = test system: HaCat normal keratinocytes; assay: Intracellular ROS, DCFH-DA assay, HaCat; format: cell-based, human; conditions: 12 h treatment, result in words
Experimental: HaCat and A375 cells were seeded at 25,000 cells/well in 96-well plates (Black plate, Clear bottom, Corning, Costar®, NY, USA) and incubated until cells were ~90% confluent. Serum-free DMEM without phenol red (Thermo Fisher Scientific, Gibco, Carlsbad, CA, USA) was used for all experiments. Cells were exposed to compounds or H2O2 (500 µM) for 12 h. Cell staining with ROS fluorescent indicator 2’,7’-dichlorodihydrofluorescein diacetate (DCFH-DA) was performed 1.5 h before the end of the 12-h exposure time. A kinetic analysis was then performed at 37°C using a microplate reader (SpectraMax® ParadigmTM Molecular Devices, Sunnyvale, CA, USA) by measuring the DCF fluorescence (excitation 485 nm and emission 535 nm) every 10 min for 1 h. […] The Bradford assay (Coomassie blue colorimetric method) was then performed in order to determine the relative amount of protein per well, as an indication of cell number per well, and all fluorescence measurements were normalized relative to the cell number. The background fluorescence produced by blank medium controls and unstained but treated cell controls were subtracted from DCFH-DA stained cells. The DCF fluorescence measured at the beginning of the analysis (time 0) was subtracted from the DCF fluorescence at the indicated times for the kinetic analysis (results not shown). […]
The levels of intracellular ROS were determined using the DCFH-DA assay. […]

A375 melanoma cells [5] = assay: MTT cell viability assay, A375; format: cell-based, human; conditions: for IC50: MTT, 24 h, combinations 1:1
Description: as §3, §4, §5

Row | Compound | HaCat (% LDH release) [1] [%] | IC50 ([2]; results from elesclomol-Cu(II) reported in nM, combinations 1:1) [nM] | LDH release, result in words (A375 melanoma cells [3]) | A375 (% LDH release) (A375 melanoma cells [3]) [%] | Fold increase in LDH release (A375 melanoma cells [3]; selectivity toward melanoma cell membranes, A375 vs HaCat) | Intracellular ROS (DCF fluorescence fold change vs untreated control) [4] | Therapeutic index (TI) (A375 melanoma cells [5]; IC50 of HaCat cells/IC50 of A375 cells) | IC50 (A375 melanoma cells [5]; results from elesclomol-Cu(II) reported in nM) [nM] | CC50 [2] [µM] | IC50 (A375 melanoma cells [5]; Homo sapiens, A-375, mean ± SD) [nM]
1 | CN([N-]C(=O)CC(=O)[N-]N(C)C(=[SH+])c1ccccc1)C(=[SH+])c1ccccc1.[Cu] [Elesclomol-Cu(II) 1-Cu, elesclomol-Cu(II)] | 16 ± 0.79 | 4.88 ± 0.56 | did not significantly increase the release of LDH | 21 ± 0.94 | 1.3 | no significant increased intracellular ROS | 2.8 | 1.72 ± 0.23 |  | 
2 | COc1cc([C@@H]2c3cc4c(cc3[C@@H](O[C@@H]3O[C@@H]5CO[C@@H](C)O[C@H]5[C@H](O)[C@H]3O)[C@H]3COC(=O)[C@H]23)OCO4)cc(OC)c1O [Etoposide 9, etoposide] | 7 ± 0.31 |  | did not significantly increase the release of LDH | 11 ± 0.56 |  |  |  |  | > 13000 | 43700 ± 1370
3 | O=C(O)c1cc(/N=N/c2ccc(S(=O)(=O)Nc3ccccn3)cc2)ccc1O [Sulfasalazine 8, sulfasalazine] | 35 ± 1.02 |  | did not significantly increase the release of LDH | 21 ± 0.96 |  |  |  |  | 2223 ± 5.37 | 569800 ± 2950
